The values below come from publication PMC5722265, “Leishmanicidal compounds of Nectria pseudotrichia, an endophytic fungus isolated from the plant Caesalpinia echinata (Brazilwood)” (Memórias do Instituto Oswaldo Cruz, 2018).

≈ marks a conversion by molar mass, not a printed value. Read-outs that look alike come from different tables or passages of the source. Where only a bound is given, the exact number is not on record here.

The subject of series [1] is L. amazonensis promastigotes. Further details: method as in Brissow et al. 2017. Particulars: ref Brissow et al. 2017; cited from earlier work.
The subject of series [2] is amastigote forms of L. (V.) braziliensis strain MHOM/BR/75/M2903. More on the design: method as in de Morais-Teixeira et al. 2014. Particulars: different time periods of drug exposure (three, five, and seven days); ref de Morais-Teixeira et al. 2014; cited from earlier work.
A further series relates to THP-1 cells. The series can be described thus: Toxicity on host THP-1 macrophages, MTT. The format is cell-based. Particulars: for IC50: Homo sapiens, read-out: THP-1 IC50; for toxicity to THP-1 cells (in words): concentration range tested. The method, then:
To assess toxicity of the compounds on the host cells, THP-1 macrophages were seeded in 96-well plates at a density of 2 × 10^5 cells per well, differentiated in the presence of 20 ng/mL phorbol myristate for 72 h at 37°C, and treated with 1.5-200.0 µg/mL of the compounds or 1.5-200.0 μM of Amphotericin B. After 72 h treatment with compounds, cell death was estimated using MTT, which is metabolised by viable cells resulting in a purple product that can be quantified using a spectrophotometer (absorbance at 570 nm). The results were calculated from the absorbance measurements using the percentage of cell death in relation to the untreated cell controls.

For series [3], the system named is intracellular amastigote forms of Leishmania (Viannia) braziliensis. In words: Antileishmanial assay on intracellular amastigotes of L. (V.) braziliensis LUC (firefly luciferase reporter) in THP-1 macrophages. The format is cell-based. Conditions: for IC50: Leishmania braziliensis, intracellular amastigotes in THP-1 macrophages, luciferase activity, 72 h; for activity against amastigote forms of L. (V.) braziliensis (in words): L. (V.) braziliensis expressing firefly luciferase. On the procedure: Assays with L. (V.) braziliensis - L. (V.) braziliensis (strain MHOM/BR/1994/H3227) promastigotes were maintained in minimum essential culture medium (α-MEM) (Gibco/Brl, Grand Island, NY, USA) supplemented with 10% (v/v) heat inactivated foetal bovine serum (FBS, Cultilab, Campinas, SP, Brazil), […] kanamycin, […] ampicillin, 2 mm L-glutamine, 5 mg/mL hemin, and 5 mm biopterin (Sigma-Aldrich, St. Louis, USA), at pH 7.0 and incubated at 25°C.
For this assay, we used L. (V.) braziliensis LUC expressing firefly luciferase as a reporter gene. The transfection was performed as previously described ([Roy et al. 2000]). Human monocyte-derived macrophage cell line, THP-1, was maintained in RPMI 1640 medium supplemented with 10% FBS and differentiated in the presence of 20 ng/mL phorbol myristate for 72 h at 37°C. Cells were infected with L. (V.) braziliensis LUC promastigotes at a parasite/macrophage ratio of 10:1 for 3 h in a white walled 96-well tissue culture plate. Non-internalised parasites were removed by five washes with HEPES/NaCl buffer (20 mm HEPES, 0.15 M NaCl, 10 mm glucose, pH 7.2). The infected cells were then treated with 1.5-200.0 µg/mL of sample-tests and 0.006-0.8 µM of amphotericin B (positive control). After 72 h, RPMI was aspirated and luciferase activity was assessed by adding 20 µL reconstituted One-Glo™ Luciferase Assay system solution as enzyme substrate, following the manufacturer's instructions (Promega, Madison, WI, USA). Luciferase activity was measured by luminescence detection in a SpectraMax M5 luminometer (Molecular Devices, Sunnyvale, CA, USA) using 1 s integration/well. Non-infected THP-1 macrophages were used as signal background while non-treated infected THP-1 macrophages were used as control for growth comparison. Antileishmanial activity was expressed as the concentration required to inhibit 50% of parasite growth, as calculated by sigmoidal regression analyses using GraphPad Prism (Version 6.0c, GraphPad Software Inc., La Jolla, CA, USA).
A general note: In a reporter assay the amount or activity of a reporter protein is the signal.

Another series relates to Vero cells. In words: Cytotoxicity assay using Vero cells, MTT. The format is cell-based, African green monkey. Conditions: for IC50: Chlorocebus sabaeus, Vero, 72 h, read-out: Vero IC50; for selectivity index (SI): IC50 Vero cells/IC50 L. (V.) braziliensis; for toxicity to Vero cells (in words): concentration range tested. On the procedure:
Cytotoxicity assay using Vero cells - African green monkey kidney cells (Vero) were used as model of normal cells and were provided by Erna Kroon (Federal University of Minas Gerais, Brazil). The cells were maintained in DMEM medium (Sigma-Aldrich), containing 5% FBS (Gibco/Brl), enriched with 1% antibiotic solution (100 IU/mL penicillin and 100 µg/mL streptomycin, Gibco/Brl). Vero cells were inoculated in 96 well plates at 1 × 10^4 cells/well and the plates incubated for 24 h at 37°C. The samples and amphotericin B (positive control) were dissolved in DMSO (Sigma-Aldrich). […] All cell cultures were incubated in a 5% CO2/95% humidified air atmosphere at 37°C for 72 h. Wells with 0.5% v/v DMSO were used as a negative control. All medium and reagents used in the assays were endotoxin free. Cell viability was estimated by measuring the mitochondrial reduction of MTT ([Monks et al. 1991]). The samples were tested in triplicate in two independent experiments. The results were expressed as percentage of viability in relation to the negative control (DMSO, 0.5% v/v), calculated as follows: percentage of cell viability (%) = [(treated mean OD / negative control) x 100] and obtained from two independent experiments performed in triplicate. The IC50 values were calculated by non-linear regression using GraphPad Prism® Version 5.01 software. The selective index (SI) was calculated by dividing IC50 Vero cells/IC50 L. (V.) braziliensis.

Series [4] deals with BC-1 human breast cancer cells. More on the design: method as in Anderson et al. 1985. Conditions: ref Anderson et al. 1985; cited from earlier work.
The next series deals with KB cells. More on the design: method as in Anderson et al. 1985. Particulars: human mouth epidermoid carcinoma; ref Anderson et al. 1985; cited from earlier work.
For the next series, the system named is A549 cells. Further details: method as in Calcul et al. 2013. Conditions: at 25 nM; ref Calcul et al. 2013; cited from earlier work.
For series [5], the system named is Plasmodium falciparum (3D7). More on the design: method as in Calcul et al. 2013. Particulars: at 25 nM; ref Calcul et al. 2013; cited from earlier work.
Series [6] relates to Leishmania promastigotes and intracellular amastigotes in macrophages. Further details: method as in Roy et al. (2014). Particulars: ref Roy et al. (2014); cited from earlier work.
On the set-up of series [7]: method as in DrugBank Database, DrugBank Version 5.0. Conditions: Experimental property; ref DrugBank Database, DrugBank Version 5.0; cited from earlier work.
Another series concerns tumour xenographs. Further details: method as in Rahier et al. (2015). Conditions: ref Rahier et al. (2015); cited from earlier work.

On to 18-des-hydroxy cytochalasin H, for which the “IC50, viability of L. amazonensis promastigotes” value in [1] is on record as 9.2 µg/mL.

By IC50 is commonly meant the concentration at which inhibition is half-maximal. With `C[C@@H]1[C@H](O)[C@@H](C)/C=C/C=C/C=C/C=C/C=C/C=C/C=C/[C@H](O[C@@H]2O[C@H](C)[C@@H](O)[C@H](N)[C@@H]2O)C[C@@H]2O[C@](O)(C[C@@H](O)C[C@@H](O)[C@H](O)CC[C@@H](O)C[C@@H](O)CC(=O)O[C@H]1C)C[C@H](O)[C@H]2C(=O)O` [Amphotericin B, reference compound], the IC50 was 0.02 to 0.06 µM in series [2]; 12 µM with THP-1 cells (THP-1, MTT, 72 h); 0.12 µM in [3]; 18.2 µM in the series on Vero cells (MTT).

For the molecule `CC(=O)O[C@@]1(CO)CC[C@H](C(C)C)[C@H]2C=C(C(=O)O)COC(=O)[C@@H]21` [Compound 1, (+)-(5aS,6R,9S,9aS)-9-(acetyloxy)-9-(hydroxymethyl)-1-oxo-6-(propan-2-yl)-1,3,5a,6,7,8,9,9a-octahydro-2-benzoxepine-4-carboxylic acid], in the series on THP-1 cells (THP-1, MTT, 72 h), the half-inhibitory concentration (IC50) is > 200 µM. Besides, the “toxicity to THP-1 cells (in words)” value with THP-1 cells (MTT) is “low toxicity”. Besides, in [3], the “activity against amastigote forms of L. (V.) braziliensis (in words)” value (from here on “activity against amastigote forms”) was “active” and inhibition was half-maximal at 21.4 µM (IC50). In the series with Vero cells (MTT), the IC50 was > 200 µM and the “toxicity to Vero cells (in words)” value is given as “low toxicity”. Besides, the “selectivity index (SI)” value with Vero cells was 9.3.

For the molecule `CC(=O)OCCCCC/C=C(/C(=O)O)[C@H](C)C(=O)O` [Compound 2, (+)-6′-acetoxy-piliformic acid], the IC50 was > 200 µM in the series on THP-1 cells (THP-1, MTT, 72 h); 28.3 µM in series [3]; > 200 µM with Vero cells (MTT). Moreover, the “toxicity to THP-1 cells (in words)” value in the series on THP-1 cells (MTT) is reported as “low toxicity”. In the series on Vero cells (MTT), the “toxicity to Vero cells (in words)” value was “low toxicity”.

Regarding `C=CCCC/C=C(/C(=O)O)[C@H](C)C(=O)O` [Compound 3], the IC50 in the series on THP-1 cells (THP-1, MTT, 72 h) was > 200 µM; in series [3], > 200 µM; in the series on Vero cells (MTT), > 200 µM. In addition, the “activity against amastigote forms” value in series [3] is given as “not active”.

For `CCCCC/C=C(/C(=O)O)[C@H](C)C(=O)O` [Compound 4, (+)-piliformic acid], the IC50 was > 200 µM in the series on THP-1 cells (THP-1, MTT, 72 h); 78.5 µM in series [3]; > 200 µM with Vero cells (MTT). Besides, in series [4], the “IC50 BC-1 human breast cancer cells” value is 5 µg/mL (≈ 23.3 µM). In addition, the “IC50 KB cells” value in the series with KB cells is 13 µg/mL (≈ 60.7 µM). The “selectivity index (SI)” value in the series on Vero cells came out at 2.5. The “activity against A549 cells (in words)” value in the series on A549 cells is “inactive”. In [5], the “activity against Plasmodium falciparum (3D7) (in words)” value is “inactive”.

Turning to `CC(C)C1CCC2(O)COC(=O)C2C1C=C(CO)C(=O)O` (stereo not shown) [Compound 5, hydroheptelidic acid], in the series with THP-1 cells (THP-1, MTT, 72 h), the IC50 is > 200 µM. Also, the “toxicity to THP-1 cells (in words)” value in the series on THP-1 cells (MTT) is listed as “low toxicity”. Besides, in series [3], the “activity against amastigote forms” value was “showed activity” and it took 24.8 µM to reach half-maximal inhibition (IC50). In the series with Vero cells (MTT), the IC50 was > 200 µM and the “toxicity to Vero cells (in words)” value is “low toxicity”.

As for `CC(C)[C@H]1CC[C@H]2COC(=O)[C@H]2[C@@H]1/C=C(\CO)C(=O)O` [Compound 6, xylaric acid D], the IC50 in the series with THP-1 cells (THP-1, MTT, 72 h) is > 200 µM; in series [3], > 200 µM; in the series with Vero cells (MTT), > 200 µM. Further, in [3], the “activity against amastigote forms” value is listed as “activity against L. (V.) braziliensis was lost”.

Regarding `C=C1[C@@H](C)[C@H]2[C@H](Cc3ccccc3)NC(=O)[C@]23[C@H](OC(C)=O)/C=C/[C@@](C)(O)C(=O)[C@@H](C)C/C=C/[C@H]3[C@@H]1O` [Compound 7, (+)-cytochalasin D], the IC50 in the series with THP-1 cells (THP-1, 72 h) was > 200 µM; in series [3], 72.6 µM; in the series with Vero cells, > 200 µM. The “effect on Leishmania attachment and intracellular amastigote load in macrophages (in words)” value in series [6] was “reduce the attachment of Leishmania promastigotes and the intracellular amastigote load”.

On to `N=C(N)c1ccc(OCCCCCOc2ccc(C(=N)N)cc2)cc1` [Pentamidine, pentamidine], for which the “Log P [E]” value in series [7] is listed as 4.

As to `CC[C@H]1OC(=O)[C@H](C)[C@@H](O[C@H]2C[C@@](C)(OC)[C@@H](O)[C@H](C)O2)[C@H](C)[C@@H](O[C@@H]2O[C@H](C)C[C@H](N(C)C)[C@H]2O)[C@](C)(O)C[C@@H](C)CN(C)[C@H](C)[C@@H](O)[C@]1(C)O` [azithromycin], in series [2], the IC50 was 5.7 µM.

`CC(C)[C@H]1CC[C@@]2(CO2)[C@H]2C(=O)OCC(C(=O)O)=C[C@H]12` [heptelidic acid]: the “activity in vivo (in words)” value in the series with tumour xenographs is “very modest activity in vivo”.

For `CCCCCCCCCCCCCCCCOP(=O)([O-])OCC[N+](C)(C)C` [miltefosine], the IC50 in [2] is 0.8 to 5.4 µM.

Consider `NC[C@@H]1O[C@H](O[C@H]2[C@@H](O)[C@H](O[C@@H]3[C@@H](O)[C@H](N)C[C@H](N)[C@H]3O[C@H]3O[C@H](CO)[C@@H](O)[C@H](O)[C@H]3N)O[C@@H]2CO)[C@H](N)[C@@H](O)[C@@H]1O` [paromomycin], for which the IC50 in [2] is 234 to 344 µM.

For Meglumine antimoniate, the IC50 in series [2] is 178 to 330 µM.
